Test results reported in publication PMC4605401 (Journal of pharmaceutical and biomedical analysis, 2009).

Key:
[1] = biological target: T1, histamine 1 receptor (H1R) (Homo sapiens, UniProt P35367); assay: Frontal affinity chromatography, competitive displacement on CMAC; assay type: binding; conditions: CMAC(1321N1P2Y1); marker 50 pM [3H]-mepyramine; 10 μM 2-MeSADP in mobile phase
P2Y1 receptor [2] = assay: Frontal affinity chromatography on CMAC; assay type: binding, human
P2Y1 receptor [3] = biological target: P2Y1 receptor (Homo sapiens, UniProt P47900); assay: Frontal affinity chromatography, competitive displacement on CMAC; assay type: binding; conditions: CMAC(1321N1P2Y1); marker 1 nM [3H]-2-MeSADP; 1 μM mepyramine in mobile phase
P2Y1 receptor (Homo sapiens, UniProt P47900), sequence (P47900 whole entry): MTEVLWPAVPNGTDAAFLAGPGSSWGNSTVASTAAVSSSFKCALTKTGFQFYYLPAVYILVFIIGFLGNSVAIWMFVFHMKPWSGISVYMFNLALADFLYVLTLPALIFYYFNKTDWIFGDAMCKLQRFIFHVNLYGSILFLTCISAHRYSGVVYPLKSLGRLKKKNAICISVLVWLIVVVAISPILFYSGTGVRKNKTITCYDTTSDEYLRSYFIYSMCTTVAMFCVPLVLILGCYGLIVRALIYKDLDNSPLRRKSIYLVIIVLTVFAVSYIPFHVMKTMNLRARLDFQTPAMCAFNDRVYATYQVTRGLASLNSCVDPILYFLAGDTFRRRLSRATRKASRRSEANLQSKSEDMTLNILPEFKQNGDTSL

[4] = biological target: T1, histamine 1 receptor (H1R); assay type: binding; conditions: histamine subtype selectivity; data not shown
[5] = biological target: T1, histamine 1 receptor (H1R); conditions: cellular membrane binding studies; data not shown

T1 sequence (P35367 whole entry): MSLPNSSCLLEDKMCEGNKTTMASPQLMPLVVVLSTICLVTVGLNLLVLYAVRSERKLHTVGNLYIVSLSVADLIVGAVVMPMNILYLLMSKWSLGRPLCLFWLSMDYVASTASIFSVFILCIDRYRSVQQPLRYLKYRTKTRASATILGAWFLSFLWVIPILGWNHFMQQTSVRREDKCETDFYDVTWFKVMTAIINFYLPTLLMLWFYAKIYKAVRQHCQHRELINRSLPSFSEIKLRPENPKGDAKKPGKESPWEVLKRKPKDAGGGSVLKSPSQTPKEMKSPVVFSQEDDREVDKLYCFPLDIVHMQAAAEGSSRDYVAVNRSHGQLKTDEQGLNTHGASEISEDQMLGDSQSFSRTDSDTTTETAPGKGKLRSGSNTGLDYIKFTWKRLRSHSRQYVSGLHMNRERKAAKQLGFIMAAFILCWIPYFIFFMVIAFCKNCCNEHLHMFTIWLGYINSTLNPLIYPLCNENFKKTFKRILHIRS

## CSc1nc(N)c2ncn([C@@H]3O[C@H](COP(=O)(O)OP(=O)(O)O)[C@@H](O)[C@H]3O)c2n1 [2-MeSADP]
[1]
  effect on the breakthrough volume of mepyramine: no effect
P2Y1 receptor [2]; P2Y1, non-transfected 1321N1 membranes
  CMAC(1321N1) Kd: No binding
P2Y1 receptor [2]; [3H]-2-MeSADP added to the mobile phase
  specific retention on CMAC(1321N1) column: no specific retention

## COc1ccc(CN(CCN(C)C)c2ccccn2)cc1 [Mepyramine, mepyramine]
P2Y1 receptor [3]
  effect on the breakthrough volume of 2-MeSADP: no effect

## 4-methylhistamine
[4]
  specific retention on CMAC(1321N1) column: No specific retention
[5]
  specific binding to 1321N1 cellular membranes: did not specifically bind
